Data from ChEMBL document CHEMBL5046253, “Synthesis and bioevaluation of diaryl urea derivatives as potential antitumor agents for the treatment of human colorectal cancer” (Eur J Med Chem, 2022).

Tests used:
CNE-2 = assay: Antiproliferative activity against human CNE-2 cells assessed as reduction in cell viability incubated for 48 hrs by MTT assay; type: functional, cell-based; conditions: CNE-2, 48 h
[1] = target: Phosphatidylinositol 4,5-bisphosphate 3-kinase catalytic subunit alpha isoform (Homo sapiens, UniProt P42336); assay: Inhibition of PI3Kalpha (unknown origin) using PIP2 as substrate in presence of ATP incubated for 60 mins by ADP-glo based luminescence assay
[2] = target: Serine/threonine-protein kinase mTOR (Homo sapiens, UniProt P42345); assay: Inhibition of mTOR (unknown origin) using U-Light-4E-BP1 peptide as a substrate in presence of ATP incubated for 45 mins by Lance ultra assay
HeLa = assay: Antiproliferative activity against human HeLa cells assessed as reduction in cell viability incubated for 48 hrs by MTT assay; type: functional, cell-based
HCT-116 = assay: Antiproliferative activity against human HCT-116 cells assessed as reduction in cell viability incubated for 48 hrs by MTT assay; type: functional, cell-based; conditions: HCT-116, 48 h
MDA-MB-231 = assay: Antiproliferative activity against human MDA-MB-231 cells assessed as reduction in cell viability incubated for 48 hrs by MTT assay; type: functional, cell-based; conditions: MDA-MB-231, 48 h
MCF7 = assay: Antiproliferative activity against human MCF7 cells assessed as reduction in cell viability incubated for 48 hrs by MTT assay; type: functional, cell-based; conditions: MCF7, 48 h
HepG2 = assay: Antiproliferative activity against human HepG2 cells assessed as reduction in cell viability incubated for 48 hrs by MTT assay; type: functional, cell-based; conditions: HepG2, 48 h
NCI-H1975 = assay: Antiproliferative activity against human NCI-H1975 cells harboring EGFR L858R/T790M double mutant assessed as reduction in cell viability incubated for 72 hrs by celltiter-glo assay; type: functional, cell-based; conditions: NCI-H1975, 72 h
A-431 = assay: Antiproliferative activity against human A431 cells harboring wild type EGFR mutant assessed as reduction in cell viability incubated for 72 hrs by celltiter-glo assay; type: functional, cell-based; conditions: A-431, 72 h
BaF3 = assay: Antiproliferative activity against mouse BaF3 cells harboring EGFR L858R/T790M/C797S mutant assessed as reduction in cell viability incubated for 72 hrs by celltiter-glo assay; type: toxicity, cell-based; conditions: BaF3, 72 h
[3] = target: Phosphatidylinositol 4,5-bisphosphate 3-kinase catalytic subunit gamma isoform (Homo sapiens, UniProt P48736); assay: Inhibition of PI3Kgamma (unknown origin) using PIP2 as substrate in presence of ATP incubated for 60 mins by ADP-glo based luminescence assay
[4] = target: Phosphatidylinositol 4,5-bisphosphate 3-kinase catalytic subunit beta isoform (Homo sapiens, UniProt P42338); assay: Inhibition of PI3Kbeta (unknown origin) using PIP2 as substrate in presence of ATP incubated for 60 mins by ADP-glo based luminescence assay
[5] = target: T1, Phosphatidylinositol 4,5-bisphosphate 3-kinase catalytic subunit delta isoform (Homo sapiens, UniProt O00329); assay: Inhibition of PI3Kdelta (unknown origin) using PIP2 as substrate in presence of ATP incubated for 60 mins by ADP-glo based luminescence assay
T1 sequence (O00329 whole entry): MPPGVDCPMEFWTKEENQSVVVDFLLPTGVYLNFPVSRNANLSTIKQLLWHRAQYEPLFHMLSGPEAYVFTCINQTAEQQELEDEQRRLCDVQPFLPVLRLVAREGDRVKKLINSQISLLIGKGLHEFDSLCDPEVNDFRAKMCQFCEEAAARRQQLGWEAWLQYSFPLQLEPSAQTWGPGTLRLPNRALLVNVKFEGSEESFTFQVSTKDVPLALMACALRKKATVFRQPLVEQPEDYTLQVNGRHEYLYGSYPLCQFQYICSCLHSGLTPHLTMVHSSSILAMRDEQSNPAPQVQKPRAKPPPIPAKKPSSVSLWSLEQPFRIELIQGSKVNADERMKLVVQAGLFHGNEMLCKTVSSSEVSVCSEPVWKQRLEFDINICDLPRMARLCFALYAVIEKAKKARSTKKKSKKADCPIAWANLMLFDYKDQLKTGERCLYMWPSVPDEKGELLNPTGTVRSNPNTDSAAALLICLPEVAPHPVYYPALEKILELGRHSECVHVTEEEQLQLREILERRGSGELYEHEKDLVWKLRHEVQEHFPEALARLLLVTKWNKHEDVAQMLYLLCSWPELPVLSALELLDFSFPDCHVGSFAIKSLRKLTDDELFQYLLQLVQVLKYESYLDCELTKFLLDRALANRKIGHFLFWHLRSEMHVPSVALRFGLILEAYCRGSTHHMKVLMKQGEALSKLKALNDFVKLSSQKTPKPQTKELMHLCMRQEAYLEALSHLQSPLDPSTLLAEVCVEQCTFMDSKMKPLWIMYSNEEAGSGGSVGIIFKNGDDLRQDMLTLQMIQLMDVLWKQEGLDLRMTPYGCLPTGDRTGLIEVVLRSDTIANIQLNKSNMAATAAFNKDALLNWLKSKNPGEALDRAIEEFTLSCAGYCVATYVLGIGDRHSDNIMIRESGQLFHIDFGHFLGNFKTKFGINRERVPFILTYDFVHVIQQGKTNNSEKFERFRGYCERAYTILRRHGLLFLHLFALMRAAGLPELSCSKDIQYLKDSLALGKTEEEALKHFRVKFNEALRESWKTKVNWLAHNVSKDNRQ

Chain of Phosphatidylinositol 4,5-bisphosphate 3-kinase catalytic subunit alpha isoform (P42336 whole entry, canonical isoform): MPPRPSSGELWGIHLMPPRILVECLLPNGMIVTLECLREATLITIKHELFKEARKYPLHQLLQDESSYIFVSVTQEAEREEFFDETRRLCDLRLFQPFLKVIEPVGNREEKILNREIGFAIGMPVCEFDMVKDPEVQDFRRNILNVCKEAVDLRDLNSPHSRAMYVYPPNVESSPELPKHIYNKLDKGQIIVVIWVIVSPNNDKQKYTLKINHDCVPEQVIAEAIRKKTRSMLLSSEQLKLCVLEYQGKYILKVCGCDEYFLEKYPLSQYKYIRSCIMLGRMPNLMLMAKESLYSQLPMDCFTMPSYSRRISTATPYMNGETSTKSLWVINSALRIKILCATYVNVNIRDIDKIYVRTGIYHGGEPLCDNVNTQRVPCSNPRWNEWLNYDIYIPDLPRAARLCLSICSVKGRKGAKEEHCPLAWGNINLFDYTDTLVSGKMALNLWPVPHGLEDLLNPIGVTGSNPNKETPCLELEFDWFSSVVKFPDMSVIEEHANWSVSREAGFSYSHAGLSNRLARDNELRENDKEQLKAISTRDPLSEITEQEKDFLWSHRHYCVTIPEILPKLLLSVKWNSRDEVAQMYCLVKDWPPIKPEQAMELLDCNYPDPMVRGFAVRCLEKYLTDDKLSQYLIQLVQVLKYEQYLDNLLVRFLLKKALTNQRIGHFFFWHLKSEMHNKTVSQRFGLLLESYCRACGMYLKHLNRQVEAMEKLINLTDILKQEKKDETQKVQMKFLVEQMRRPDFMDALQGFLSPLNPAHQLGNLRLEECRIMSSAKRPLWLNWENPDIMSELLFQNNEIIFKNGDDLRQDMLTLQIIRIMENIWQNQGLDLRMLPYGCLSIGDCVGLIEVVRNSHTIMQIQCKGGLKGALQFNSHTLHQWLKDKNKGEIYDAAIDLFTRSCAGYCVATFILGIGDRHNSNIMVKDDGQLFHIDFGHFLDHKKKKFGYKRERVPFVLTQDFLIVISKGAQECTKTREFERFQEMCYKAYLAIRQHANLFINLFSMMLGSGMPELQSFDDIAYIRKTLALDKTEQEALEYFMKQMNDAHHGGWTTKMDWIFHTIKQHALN
Chain of Phosphatidylinositol 4,5-bisphosphate 3-kinase catalytic subunit beta isoform (P42338 whole entry, canonical isoform): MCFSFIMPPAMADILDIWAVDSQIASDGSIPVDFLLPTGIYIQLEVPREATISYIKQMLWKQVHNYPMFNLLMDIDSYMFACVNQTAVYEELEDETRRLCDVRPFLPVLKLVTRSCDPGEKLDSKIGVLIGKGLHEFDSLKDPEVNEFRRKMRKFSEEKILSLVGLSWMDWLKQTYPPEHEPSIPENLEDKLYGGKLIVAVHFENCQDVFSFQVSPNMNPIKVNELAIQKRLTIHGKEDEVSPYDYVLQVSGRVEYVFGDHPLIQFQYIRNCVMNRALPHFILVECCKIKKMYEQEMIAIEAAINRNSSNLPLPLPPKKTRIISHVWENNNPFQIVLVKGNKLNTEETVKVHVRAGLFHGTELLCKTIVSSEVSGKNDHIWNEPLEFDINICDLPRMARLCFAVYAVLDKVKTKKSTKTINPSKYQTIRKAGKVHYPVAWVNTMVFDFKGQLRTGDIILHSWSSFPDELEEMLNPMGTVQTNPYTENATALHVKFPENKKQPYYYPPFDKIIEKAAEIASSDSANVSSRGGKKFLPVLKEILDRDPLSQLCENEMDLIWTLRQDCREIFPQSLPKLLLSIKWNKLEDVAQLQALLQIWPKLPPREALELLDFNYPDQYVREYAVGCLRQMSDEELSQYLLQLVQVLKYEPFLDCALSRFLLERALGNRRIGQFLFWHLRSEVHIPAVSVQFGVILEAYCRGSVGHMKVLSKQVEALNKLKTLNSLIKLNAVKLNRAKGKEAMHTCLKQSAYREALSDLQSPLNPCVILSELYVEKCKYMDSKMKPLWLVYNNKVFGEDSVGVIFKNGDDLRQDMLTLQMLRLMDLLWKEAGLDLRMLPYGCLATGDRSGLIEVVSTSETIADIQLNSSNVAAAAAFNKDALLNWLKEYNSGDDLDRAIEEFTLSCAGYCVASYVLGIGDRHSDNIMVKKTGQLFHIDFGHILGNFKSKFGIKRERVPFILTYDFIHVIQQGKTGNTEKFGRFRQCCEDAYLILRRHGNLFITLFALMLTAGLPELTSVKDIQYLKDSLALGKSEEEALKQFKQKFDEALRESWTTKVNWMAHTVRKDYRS
Chain of Phosphatidylinositol 4,5-bisphosphate 3-kinase catalytic subunit gamma isoform (P48736 whole entry, canonical isoform): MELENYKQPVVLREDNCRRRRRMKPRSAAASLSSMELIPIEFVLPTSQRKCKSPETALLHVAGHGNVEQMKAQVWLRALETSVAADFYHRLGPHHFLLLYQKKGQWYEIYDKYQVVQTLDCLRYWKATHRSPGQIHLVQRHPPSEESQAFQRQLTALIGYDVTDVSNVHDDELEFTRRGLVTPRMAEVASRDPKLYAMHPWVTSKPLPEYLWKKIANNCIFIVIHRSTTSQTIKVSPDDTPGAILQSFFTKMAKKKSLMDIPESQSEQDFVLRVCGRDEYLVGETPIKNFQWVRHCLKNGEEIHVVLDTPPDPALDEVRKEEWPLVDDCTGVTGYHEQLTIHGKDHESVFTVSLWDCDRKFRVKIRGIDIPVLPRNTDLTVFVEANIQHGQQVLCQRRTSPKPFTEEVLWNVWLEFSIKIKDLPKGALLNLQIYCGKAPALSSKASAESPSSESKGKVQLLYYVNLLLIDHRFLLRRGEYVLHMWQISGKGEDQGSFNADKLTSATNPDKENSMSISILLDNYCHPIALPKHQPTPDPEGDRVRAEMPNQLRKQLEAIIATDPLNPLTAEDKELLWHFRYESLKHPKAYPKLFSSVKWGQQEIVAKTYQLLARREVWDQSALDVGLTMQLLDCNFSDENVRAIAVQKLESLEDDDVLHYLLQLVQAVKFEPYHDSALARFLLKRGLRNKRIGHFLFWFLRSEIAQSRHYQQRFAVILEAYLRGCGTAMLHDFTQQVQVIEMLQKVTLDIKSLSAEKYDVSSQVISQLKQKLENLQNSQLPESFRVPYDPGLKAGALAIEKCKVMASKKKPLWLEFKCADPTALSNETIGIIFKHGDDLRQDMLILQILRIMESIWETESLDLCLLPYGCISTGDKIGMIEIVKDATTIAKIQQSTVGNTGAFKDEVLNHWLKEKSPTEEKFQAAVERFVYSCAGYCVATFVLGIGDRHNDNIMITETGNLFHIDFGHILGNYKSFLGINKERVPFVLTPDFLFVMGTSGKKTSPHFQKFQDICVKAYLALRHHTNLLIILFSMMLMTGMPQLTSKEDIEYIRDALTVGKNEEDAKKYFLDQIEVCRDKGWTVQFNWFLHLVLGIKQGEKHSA

| SMILES | IC50 (CNE-2) | IC50 [1] | IC50 [2] | IC50 (HeLa) | IC50 (HCT-116) | IC50 (MDA-MB-231) | IC50 (MCF7) | IC50 (HepG2) | IC50 (NCI-H1975) | IC50 (A-431) | IC50 (BaF3) | IC50 [3] | IC50 [4] | IC50 [5] |
| --- | --- | --- | --- | --- | --- | --- | --- | --- | --- | --- | --- | --- | --- | --- |
| CN(C)C1CCN(C(=O)c2ccc(NC(=O)Nc3ccc(-c4cc(N5CCOCC5)nc(N5CCOCC5)n4)cc3)cc2)CC1 | 1460 nM | 31.8 nM | 6.2 nM | 4.74 µM | 1610 nM | 7.57 µM | 9.28 µM | – | – | – | – | – | – | – |
| NC(=O)[C@@H]1CCCN1C(=O)c1cnc(Nc2ccc(-c3nc(N4CCOCC4)nc(N4CCOCC4)n3)cc2)nc1 | – | 680 nM | – | – | – | – | – | – | – | – | – | – | – | – |
| O=C(Nc1ccc(C(=O)N2CCCC2C(=O)O)cc1)Nc1ccc(-c2nc(N3CCOCC3)nc(N3CCOCC3)n2)cc1 (centres undefined) | 2560 nM | 11 nM | 3.7 nM | 11.7 µM | – | 29.1 µM | 7.15 µM | – | – | – | – | – | – | – |
| NC(=O)[C@@H]1CCCN1C(=O)c1ccc(NC(=O)Nc2ccc(-c3nc(N4CCOCC4)nc(N4C[C@@H]5OCCO[C@H]5C4)n3)cc2)cc1 | 950 nM | 4.3 nM | 5.7 nM | 0.56 µM | 780 nM | 0.62 µM | – | – | – | – | – | – | – | – |
| COC(=O)[C@@H]1C[C@@H](O)CN1C(=O)c1ccc(NC(=O)Nc2ccc(-c3nc(N4CCOCC4)nc(N4CCOCC4)n3)cc2)cc1 | 2680 nM | 28.7 nM | 3.3 nM | 1.43 µM | 310 nM | 0.43 µM | 0.7 µM | 8.82 µM | – | – | – | – | – | – |
| NC(=O)[C@@H]1CCCN1C(=O)Nc1ccc(-c2nccc(N3CCOCC3)n2)cc1 | – | > 1000 nM | 10.3 nM | – | – | – | – | – | – | – | – | – | – | – |
| COC(=O)[C@@H]1CCCN1C(=O)c1ccc(NC(=O)Nc2ccc(-c3nc(N4CCOCC4)nc(N4CCOCC4)n3)cc2)cc1 | 3990 nM | 19 nM | 4.2 nM | 9.71 µM | 2700 nM | 10.4 µM | 9.03 µM | 10.4 µM | – | – | – | – | – | – |
| NC(=O)C1CCCN(C(=O)c2ccc(NC(=O)Nc3ccc(-c4nc(N5CCOCC5)nc(N5CCOCC5)n4)cc3)cc2)C1 (centres undefined) | 10200 nM | 1.6 nM | 2.1 nM | 9.69 µM | 740 nM | 0.25 µM | 2.29 µM | 0.13 µM | 601 nM | 242 nM | 294 nM | – | – | – |
| C[C@H]1COCCN1c1nc(-c2ccc(NC(=O)Nc3ccc(C(=O)N4CCC(C(N)=O)CC4)cc3)cc2)nc(N2CCOCC2)n1 | 670 nM | 4.3 nM | 1.2 nM | 0.21 µM | 380 nM | 1.74 µM | – | 0.54 µM | – | – | – | – | – | – |
| CN(C)[C@@H]1C[C@@H](C(N)=O)N(C(=O)c2ccc(NC(=O)Nc3ccc(-c4nc(N5CCOCC5)nc(N5CCOCC5)n4)cc3)cc2)C1 | 7890 nM | 7 nM | 2.2 nM | 12 µM | 2510 nM | 14.6 µM | – | – | 2880 nM | 2500 nM | 3350 nM | 19.4 nM | 14.9 nM | 29.1 nM |
| NC(=O)[C@@H]1CCCN1C(=O)c1ccc(NC(=O)Nc2ccc(-c3cc(N4CCOCC4)nc(N4CCOCC4)n3)cc2)cc1 | 1950 nM | 13.8 nM | 7.4 nM | 13.5 µM | 8040 nM | 11.3 µM | 7.89 µM | 24.2 µM | – | – | – | – | – | – |
| NC(=O)[C@H]1CCCN1C(=O)c1ccc(NC(=O)Nc2ccc(-c3cc(N4CCOCC4)nc(N4CCOCC4)n3)cc2)cc1 | 3830 nM | 5.7 nM | 7.3 nM | 6.98 µM | 6130 nM | 16.4 µM | – | – | – | – | – | – | – | – |
| NC(=O)C1CCCN1C(=O)c1ccc(NC(=O)Nc2ccc(-c3nc(N4CCOCC4)nc(N4CCOCC4)n3)cc2)cc1 (centres undefined) | 520 nM | 0.6 nM | 1.4 nM | 8.6 µM | 200 nM | 6.78 µM | 4.85 µM | – | – | – | – | – | – | – |
| C[C@H](NC(=O)c1ccc(NC(=O)Nc2ccc(-c3nc(N4CCOCC4)nc(N4CCOC[C@@H]4C)n3)cc2)cc1)C(N)=O | – | 5 nM | 0.9 nM | – | – | – | – | – | – | – | – | 34 nM | 47.1 nM | 44.1 nM |
| NC(=O)C1CCCCN1C(=O)c1ccc(NC(=O)Nc2ccc(-c3cc(N4CCOCC4)nc(N4CCOCC4)n3)cc2)cc1 (centres undefined) | 2000 nM | 16.5 nM | 7.6 nM | 1.51 µM | 2570 nM | 5.21 µM | 3.16 µM | 17.7 µM | – | – | – | – | – | – |
| CN(C)C1CCN(C(=O)c2cnc(Nc3ccc(-c4nc(N5CCOCC5)nc(N5CCOCC5)n4)cc3)nc2)CC1 | – | > 1000 nM | – | – | – | – | – | – | – | – | – | – | – | – |
| NC(=O)[C@@H]1CCCN1C(=O)c1ccc(NC(=O)Nc2ccc(-c3cc(N4CCOCC4)ncn3)cc2)cc1 | – | > 1000 nM | – | – | – | – | – | – | – | – | – | – | – | – |
| C[C@@H]1COCCN1c1nc(-c2ccc(NC(=O)Nc3ccc(C(=O)N4CCC[C@H]4C(N)=O)cc3)cc2)nc(N2CCOCC2)n1 | 350 nM | 1.8 nM | 1 nM | 0.46 µM | 2190 nM | 1.3 µM | 3.5 µM | 1.03 µM | – | – | – | – | – | – |
| CN(C)[C@H]1C[C@@H](C(N)=O)N(C(=O)c2ccc(NC(=O)Nc3ccc(-c4nc(N5CCOCC5)nc(N5CCOCC5)n4)cc3)cc2)C1 | 6670 nM | 9.1 nM | 3.1 nM | 28.5 µM | 2480 nM | 19.2 µM | – | 18.7 µM | – | – | – | – | – | – |
| NC(=O)[C@H]1CCCN1C(=O)c1ccc(NC(=O)Nc2ccc(-c3nc(N4CCOCC4)nc(N4CCOCC4)n3)cc2)cc1 | 180 nM | 0.6 nM | 2.3 nM | 10.4 µM | 290 nM | 7.35 µM | 10.4 µM | – | – | – | – | 7.4 nM | 3.2 nM | 13 nM |
| NC(=O)C1CCCCN1C(=O)c1ccc(NC(=O)Nc2ccc(-c3nc(N4CCOCC4)nc(N4CCOCC4)n3)cc2)cc1 (centres undefined) | 1740 nM | 1.6 nM | 3 nM | 10.3 µM | 3780 nM | 5.64 µM | – | 16.6 µM | – | – | – | – | – | – |
| C[C@H]1COCCN1c1ccnc(-c2ccc(NC(=O)Nc3ccc(C(=O)N4CCC[C@H]4C(N)=O)cc3)cc2)n1 | – | 28.7 nM | 9.2 nM | – | – | – | – | – | – | – | – | – | – | – |
| CN(C)C1CCN(C(=O)c2ccc(NC(=O)Nc3ccc(-c4nc(N5CCOCC5)nc(N5C[C@@H]6OCCO[C@H]6C5)n4)cc3)cc2)CC1 | 290 nM | 10.2 nM | 4.8 nM | 7.94 µM | 1300 nM | 1.92 µM | 2.26 µM | 0.2 µM | – | – | – | – | – | – |
| NC(=O)[C@@H]1C[C@@H]2C[C@@H]2N1C(=O)c1ccc(NC(=O)Nc2ccc(-c3nc(N4CCOCC4)nc(N4CCOCC4)n3)cc2)cc1 | 9160 nM | 1.9 nM | 2 nM | 15.6 µM | 1960 nM | 9.89 µM | 10.5 µM | – | – | – | – | – | – | – |
| NC(=O)C1CCN(C(=O)c2ccc(NC(=O)Nc3ccc(-c4nc(N5CCOCC5)nc(N5CCOCC5)n4)cc3)cc2)CC1 | 4170 nM | 0.7 nM | 1.9 nM | 1.39 µM | 1510 nM | 0.9 µM | 3.81 µM | 0.51 µM | 2440 nM | 585 nM | 292 nM | – | – | – |
